Measured values: patent US12691070B2, “Cationic lipids and preparation method thereof” (RiboX Therapeutics HK Limited, priority 2023, dated 2026)

How the values were obtained:
[1] = LNP size and polydispersity index (PDI) by dynamic light scattering; assay type: physicochemical; details: LNP with cirRNA (SEQ ID NO: 1); for Size: in nm (unit assumed)
Experimental: (§1) Ionizable lipid, DSPC, Cholesterol and DMG-PEG 2000 were mixed at a molar ratio of 50:10:38.5:1.5 in absolute ethanol. Circular RNA and linear mRNA payloads were suspended in 25 mM Acetate Buffer (pH 4.5). To form LNPs, three volumes of luciferase encoding RNA, in the form of cirRNA (SEQ ID NO:1) and mRNA (SEQ ID NO:2) respectively, were mixed with one volume of lipids in ethanol solution by microfluidic mixing with the Nanoassemblr Ignite (Precision Nanosystems) at a flow rate of 12 ml/min. The molar ratio of ionizable lipid to ribonucleotide was 15 or 6. The final lipid concentration in solution ranged from 1.5 mM to 6 mM. After encapsulation, the particles were dialyzed twice against PBS.
(§2) The LNP size and polydispersity index (PDI), determined by dynamic light scattering (DLS), and zeta potential were measured by a Zetasizer machine (Malvern). RNA concentration and encapsulation efficacy were analyzed by the Quant-IT Ribogreen kit by calculating the percentage encapsulation at 100%−(RNA-LNPs/RNA-LNPs with Triton X-100).

[2] = LNP zeta potential (Zetasizer); assay type: physicochemical; details: LNP with cirRNA (SEQ ID NO: 1)
Experimental: as §1, §2

[3] = RNA encapsulation efficacy by Quant-IT Ribogreen kit; assay type: physicochemical; details: LNP with cirRNA (SEQ ID NO: 1)
Experimental: as §1, §2

Hep G2 cells [4] = assay: In vitro expression of firefly-luciferase, Hep G2; assay type: cell-based; details: cirRNA (SEQ ID NO: 1) LNPs; firefly-luciferase luminescence; Hep G2 cells
Experimental: (§3) RAW 264.7 and Hep G2 cells were transfected with 100 ng/mL of RNA-LNPs encoding for firefly-luciferase. At 72 hours post transfection, the cells were washed and lysed. The luciferase expression was determined in the cell lysates with the luciferase assay reagent kit (Promega), according to the kit protocol, luciferase activity was measured by a luminometer.

RAW 264.7 cells [5] = assay: In vitro expression of firefly-luciferase, RAW 264.7; assay type: cell-based; details: cirRNA (SEQ ID NO: 1) LNPs; firefly-luciferase luminescence; RAW 264.7 cells
Experimental: as §3

Hep G2 cells [6] = assay: In vitro toxicity (CellTiter-Glo cell viability), Hep G2; assay type: cell-based; details: cirRNA (SEQ ID NO: 1) LNPs; Hep G2 cells;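 also: percent of untreated cells luminescence signal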
Experimental: (§4) RAW 264.7 and Hep G2 cells were transfected with 1 μg/mL RNA-LNPs. At 72 hours post transfection, cell viability was determined with the CellTiter-Glo® reagent kit, according to the kit protocol, measured by a luminometer.
(§5) The cell viability was calculated according to the following formula: […]

RAW 264.7 cells [7] = assay: In vitro toxicity (CellTiter-Glo cell viability), RAW 264.7; assay type: cell-based; details: cirRNA (SEQ ID NO: 1) LNPs; RAW 264.7 cells;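 also: percent of untreated cells luminescence signal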
Experimental: as §4, §5

BALB/C mice = assay: In vivo expression, whole-body luminescence (IVIS); details: cirRNA (SEQ ID NO: 1) LNPs, BALB/C mice
Experimental: 6-8 week old, female BALB/C mice were injected with 0.05 mg*kg-1 of RNA-LNPs encoding for firefly-luciferase by intravenous injection. At 6 hours post injection, animals were intraperitoneally injected with 15 mg/ml of Luciferin substrate and whole-body luminescence was determined by a bioluminescent in vivo imaging system (IVIS).

| SMILES | PDI [1] | Size [1] | Zeta (mV) [2] [mV] | Encapsulation Efficiency % [3] [%] | In vitro Expression HepG2 (Hep G2 cells [4]) | In vitro Expression RAW (RAW 264.7 cells [5]) | In vitro Viability HepG2 (Hep G2 cells [6]) [%] | In vitro Viability RAW (RAW 264.7 cells [7]) [%] | In vivo Expression (Whole Body) (BALB/C mice) |
| --- | --- | --- | --- | --- | --- | --- | --- | --- | --- |
| CCCCC/C=C\C/C=C\CCCCCCCCN(CCCCCCCC/C=C\CCCCCCCC)CCOC(=O)NCCCN(CC)CC [Lipid 69, 2-(((Z)-octadec-9-en-1-yl)((9Z,12Z)-octadeca-9,12-dien-1-yl)amino)ethyl (3-(diethylamino)propyl)carbamate] | 0.205 | 161.1 | 16.31 | 95 | 4.62E+04 | 2.25E+02 | 86 | 102 | 2.17E+06 |
| CCCCC/C=C\C/C=C\CCCCCCCCN(CCCCCCCC/C=C\CCCCCCCC)CCOC(=O)NCCN1CCN(C)CC1 [Lipid 70, 2-(((Z)-octadec-9-en-1-yl)((9Z,12Z)-octadeca-9,12-dien-1-yl)amino)ethyl (2-(4-methylpiperazin-1-yl)ethyl)carbamate] | 0.115 | 83.09 | 11.22 | 97 | 9.79E+04 | 2.29E+03 | 120 | 104 | 2.08E+05 |
| CCCCC/C=C\C/C=C\CCCCCCCCN(CCCCCC(=O)OCC(CCCCCCCC)CCCCCCCCCC)CCOC(=O)NCCN1CCOCC1 (stereo not drawn) [Lipid 79, 2-octyldodecyl 6-((2-(((2-morpholinoethyl)carbamoyl)oxy)ethyl)((9Z,12Z)-octadeca-9,12-dien-1-yl)amino)hexanoate] | 0.2181 | 99.18 | −2.908 | 93 | 3.94E+03 | 4.60E+01 | 104 | 104 | 4.70E+07 |
| CCCCC/C=C\C/C=C\CCCCCCCCN(CCCCCCCC(=O)OC(CCCCCCCC)CCCCCCCC)CCOC(=O)NCCCN(C)C [Lipid 130, heptadecan-9-yl 2-methyl-11-((9Z,12Z)-octadeca-9,12-dien-1-yl)-7-oxo-8-oxa-2,6,11-triazanonadecan-19-oate] | 0.1685 | 145.8 | 11.37 | 99 | 5.31E+06 | 6.92E+05 | 91 | 90 | 1.08E+07 |
| CCCCC/C=C\C/C=C\CCCCCCCCN(CCCCCCCC(=O)OC(CCCCCCCC)CCCCCCCC)CCOC(=O)NCCCn1ccnc1 [Lipid 133, heptadecan-9-yl 8-((2-(((3-(1H-imidazol-1-yl)propyl)carbamoyl)oxy)ethyl)((9Z,12Z)-octadeca-9,12-dien-1-yl)amino)octanoate] | 0.0973 | 92.91 | 2.957 | 95 | 4.26E+04 | 8.30E+04 | 13 | 27 | 2.04E+08 |

The next lines start with results.

| PDI [1] | Size [1] | Zeta (mV) [2] [mV] | Encapsulation Efficiency % [3] [%] | SMILES | In vitro Expression HepG2 (Hep G2 cells [4]) | In vitro Expression RAW (RAW 264.7 cells [5]) | In vitro Viability HepG2 (Hep G2 cells [6]) [%] | In vitro Viability RAW (RAW 264.7 cells [7]) [%] | In vivo Expression (Whole Body) (BALB/C mice) |
| --- | --- | --- | --- | --- | --- | --- | --- | --- | --- |
| 0.087 | 142.9 | 8.392 | 99 | CCCCC/C=C\C/C=C\CCCCCCCCN(CCCCCCCC/C=C\CCCCCCCC)CCOC(=O)NCCN(C)C [Lipid 67, 2-(((Z)-octadec-9-en-1-yl)((9Z,12Z)-octadeca-9,12-dien-1-yl)amino)ethyl (2-(dimethylamino)ethyl)carbamate] | 1.21E+05 | 5.99E+02 | 120 | 107 | 6.00E+07 |
| 0.1484 | 137.8 | 0.03131 | 96 | CCCCC/C=C\C/C=C\CCCCCCCCN(CCCCCC(=O)OCC(CCCCCCCC)CCCCCCCCCC)CCOC(=O)NCc1ncc[nH]1 (stereo not drawn) [Lipid 76, 2-octyldodecyl 6-((2-((((1H-imidazol-2-yl)methyl)carbamoyl)oxy)ethyl)((9Z,12Z)-octadeca-9,12-dien-1-yl)amino)hexanoate] | 1.22E+04 | 5.53E+02 | 121 | 86 | 2.55E+05 |
| 0.0918 | 110 | 9.83 | 100 | CCCCC/C=C\C/C=C\CCCCCCCCN(CCCCCC(=O)OCC(CCCCCCCC)CCCCCCCCCC)CCOC(=O)NCCN1CCN(C)CC1 (stereo not drawn) [Lipid 78, 2-octyldodecyl 6-((2-(((2-(4-methylpiperazin-1-yl)ethyl)carbamoyl)oxy)ethyl)((9Z,12Z)-octadeca-9,12-dien-1-yl)amino)hexanoate] | 1.31E+05 | 7.80E+03 | 113 | 106 | 4.92E+05 |
| 0.1671 | 81.48 | 4.031 | 91 | CCCCC/C=C\C/C=C\CCCCCCCCN(CCCCCCCC/C=C\C/C=C\CCCCC)CCOC(=O)NCCN1CCCCC1 [Lipid 85] | 2.85E+07 | 5.74E+05 | 78 | 105 | 1.96E+07 |
| 0.064 | 142.1 | 9.53 | 96 | CCCCCCCOC(=O)CCCCCCCCCN(CCCCCCCCCC(=O)OCCCCCCC)CCOC(=O)NCCN1CCCC1 [Lipid 119, diheptyl 10,10′-((2-(((2-(pyrrolidin-1-yl)ethyl)carbamoyl)oxy)ethyl)azanediyl)bis(decanoate)] | 1.46E+03 | 1.47E+04 | 17 | 8 | 9.30E+05 |
| 0.09314 | 143.8 | 9.34 | 96 | CCCCCCCOC(=O)CCCCCCCCCN(CCCCCCCCCC(=O)OCCCCCCC)CCOC(=O)NCCN(C)C [Lipid 120, heptyl 10-(10-(heptyloxy)-10-oxodecyl)-2-methyl-6-oxo-7-oxa-2,5,10-triazaicosan-20-oate] | 2.13E+03 | 8.51E+03 | 100 | 81 | 3.33E+05 |
| 0.187 | 134.6 | 10.84 | 96 | CCCCCCCOC(=O)CCCCCCCCCN(CCCCCCCCCC(=O)OCCCCCCC)CCOC(=O)NCCCN(CC)CC [Lipid 122, heptyl 3-ethyl-12-(10-(heptyloxy)-10-oxodecyl)-8-oxo-9-oxa-3,7,12-triazadocosan-22-oate] | 2.48E+03 | 2.24E+04 | 17 | 8 | 1.43E+05 |
